Experimental data reported in ChEMBL document CHEMBL1201862, “PubChem BioAssay data set” (2004).
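Five concentrations, 48 hours, 96-well plates. GI50 is the concentration that inhibits growth by half.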 Calls of active or inactive are those of the source. Cut-off read from the data, not from the text of the source: active = GI50 up to about 1.1 µM and inactive = higher.

Key:
Experiment in all cases: NCI anticancer screen, dose series, 48 h
[1] = tested on: 786-0
[2] = tested on: HOP-62
[3] = tested on: HT-29
[4] = tested on: M14
[5] = tested on: MOLT-4
[6] = tested on: Malme-3M
[7] = tested on: NCI-H23
[8] = tested on: OVCAR-5
[9] = tested on: OVCAR-8
[10] = tested on: RPMI-8226
[11] = tested on: RXF 393
[12] = tested on: SF-539
[13] = tested on: SK-MEL-28
[14] = tested on: SK-OV-3
[15] = tested on: SNB-19
[16] = tested on: UO-31

Measured: GI50

CC(C)c1cccc(C(C)C)c1/N=C(/N)C#N
inactive: [1] > 43.6 µM | [2] > 100 µM | [3] > 58.6 µM | [4] > 100 µM | [5] > 45.9 µM | [6] > 100 µM | [7] > 100 µM | [8] > 100 µM | [9] > 100 µM | [10] 34.4 µM | [11] 53.8 µM | [12] 22.8 µM | [13] > 100 µM | [14] > 100 µM | [15] > 100 µM | [16] > 100 µM

OCCCNc1ccnc2cc(Cl)ccc12
inactive: [1] > 100 µM | [2] > 100 µM | [3] > 100 µM | [4] > 100 µM | [5] > 100 µM | [6] > 100 µM | [7] > 100 µM | [8] > 100 µM | [9] > 100 µM | [10] > 100 µM | [11] > 100 µM | [12] > 100 µM | [13] > 100 µM | [14] > 100 µM | [15] > 100 µM | [16] 25.5 µM

NCCCOCC(=O)O
inactive: [1] > 100 µM | [3] > 100 µM | [5] > 100 µM | [6] > 100 µM | [7] > 100 µM | [8] > 100 µM | [9] > 100 µM | [10] > 100 µM | [11] > 100 µM | [12] > 100 µM | [13] > 100 µM | [14] > 100 µM | [15] > 100 µM | [16] > 100 µM

N#CCCn1c(S)nnc1CCC(=O)Nc1ccc(Cl)cc1Cl
inactive: [1] > 100 µM | [2] > 100 µM | [3] > 100 µM | [4] > 100 µM | [5] > 100 µM | [6] > 100 µM | [7] > 100 µM | [8] > 100 µM | [9] > 100 µM | [10] > 100 µM | [11] > 100 µM | [12] > 100 µM | [13] > 100 µM | [14] > 100 µM | [15] > 100 µM | [16] > 100 µM

O=C1/C(=C(\Nc2ccccc2)c2ccccc2)C=NN1c1ccccc1
inactive: [1] > 100 µM | [3] 47.9 µM | [4] > 100 µM | [5] 29.3 µM | [6] 59 µM | [7] 56.8 µM | [8] > 100 µM | [9] > 100 µM | [10] 40.8 µM | [11] 22.1 µM | [12] > 100 µM | [13] > 100 µM | [14] > 100 µM | [15] > 100 µM | [16] > 100 µM

COC(=O)C(=O)C(C(=O)C=C(C)C)C(=O)C(=O)Nc1nc2ccc([N+](=O)[O-])cc2s1 (centres undefined)
inactive: [1] > 100 µM | [2] 38.4 µM | [3] > 100 µM | [4] 52 µM | [5] 36.4 µM | [6] > 100 µM | [7] 24.9 µM | [8] > 100 µM | [9] > 100 µM | [10] 28.4 µM | [11] 12.9 µM | [12] 36.6 µM | [13] 63.2 µM | [14] 39.9 µM | [15] > 100 µM | [16] 41.5 µM

C=CCNC(=O)NCCCC(NC(C)=O)C(=O)NCc1ccccc1 (centres undefined)
inactive: [1] > 100 µM | [2] > 100 µM | [3] > 100 µM | [4] > 100 µM | [5] > 100 µM | [6] > 100 µM | [7] > 100 µM | [8] > 100 µM | [9] > 100 µM | [10] > 100 µM | [11] > 100 µM | [12] > 100 µM | [13] > 100 µM | [14] > 100 µM | [15] > 100 µM | [16] > 100 µM

O=C(CCN1CCC(CCO)CC1)Nc1ccc2c(c1)C(=O)c1ccc(NC(=O)CCN3CCC(CCO)CC3)cc1C2=O
inactive: [1] 6.7 µM | [2] 17.3 µM | [3] 13.5 µM | [5] 4.13 µM | [6] 11 µM | [7] 26.5 µM | [8] > 100 µM | [9] 9.89 µM | [10] 25.9 µM | [11] 30.1 µM | [12] 6.28 µM | [13] 26.1 µM | [14] 7.96 µM | [15] 16.9 µM | [16] 34.4 µM

CN1C(=O)N(C)C2(O)c3ccccc3C(=O)C12O (centres undefined)
inactive: [1] > 100 µM | [2] > 100 µM | [3] > 100 µM | [4] > 100 µM | [5] > 100 µM | [6] > 100 µM | [7] > 100 µM | [8] > 100 µM | [9] > 100 µM | [10] > 100 µM | [11] > 100 µM | [12] > 100 µM | [13] > 100 µM | [14] > 100 µM | [15] > 100 µM | [16] > 100 µM

CC(=O)Nc1ccc(/C=C/C(=O)c2sc(C(N)=S)nc2C)cc1
inactive: [1] > 100 µM | [2] > 100 µM | [3] > 100 µM | [5] > 100 µM | [6] > 100 µM | [7] > 100 µM | [8] > 100 µM | [9] > 100 µM | [10] > 100 µM | [11] > 100 µM | [12] > 100 µM | [13] > 100 µM | [14] > 100 µM | [16] > 100 µM

CN1CCC23c4c5ccc(O)c4OC2C(=NN=C2CCC4(O)C6Cc7ccc(O)c8c7C4(CCN6C)C2O8)CCC3(O)C1C5 (centres undefined)
inactive: [1] > 100 µM | [2] > 100 µM | [3] > 100 µM | [4] > 100 µM | [5] > 100 µM | [6] > 100 µM | [7] > 100 µM | [8] > 100 µM | [9] > 100 µM | [10] > 100 µM | [12] > 100 µM | [13] > 100 µM | [14] > 100 µM | [15] > 100 µM | [16] > 100 µM

CNC(=O)OCc1nc(SC2CCCCO2)n(C)c1COC(=O)NC (centres undefined)
inactive: [1] > 100 µM | [2] > 100 µM | [3] > 100 µM | [4] > 100 µM | [5] > 100 µM | [6] > 100 µM | [7] > 100 µM | [8] > 100 µM | [9] > 100 µM | [10] > 100 µM | [11] > 100 µM | [12] > 100 µM | [13] > 100 µM | [14] > 100 µM | [15] > 100 µM | [16] > 100 µM

CC(=O)O[C@H]1C(N(C)C(=O)c2ccccc2)CC[C@]2(C)C3CC[C@@]4(C)C(CC(O)[C@@H]4C(C)N(C)C)[C@@H]3CCC12 (some centres undefined)
inactive: [1] > 100 µM | [2] > 100 µM | [3] > 100 µM | [4] > 100 µM | [5] > 100 µM | [6] > 100 µM | [7] > 100 µM | [8] > 100 µM | [9] > 100 µM | [10] > 100 µM | [12] > 100 µM | [13] > 100 µM | [14] > 100 µM | [15] > 100 µM
